These results are taken from patent US20090105301A1, “9A-SUBSTITUTED AZALIDES FOR THE TREATMENT OF MALARIA” (priority 2006, published 2009).

The test system of experiment [1] is P. falciparum D6 (CDC/Sierra Leone I, D-6). The experiment can be described thus: In vitro screening protocol I, [3H]-hypoxanthine incorporation, D6. Conditions: In vitro screening protocol I, P. falciparum D6; for IC50: Plasmodium falciparum, read-out: IC50 D6. Format: cell-based, Plasmodium falciparum. Put shortly: (§1)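 Asexual blood-stage P. falciparum was cultured in human A+ erythrocytes at 37 °C under 5% CO2/5% O2, and growth was measured by [3H]-hypoxanthine incorporation over 72 h total. TM91C235 was prescreened at 25,000, 2,500 and 25 ng/ml in folate-free medium. D-6 and W-2 IC50s came from 11-point two-fold dilutions by logistic fit.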

Experiment [2] has as its system Plasmodium falciparum strain 3D7A. The experiment can be described thus: In vitro screening protocol II, [3H] hypoxanthine incorporation IC50 assay, 3D7A. Format: cell-based. The following applies: P. falciparum 3D7A; for IC50: Plasmodium falciparum. The method, then: (§2) The protocol described here is a modification of the in vitro screening protocol I and the details of the methodology are given below.
(§3) Plasmodium falciparum strains 3D7A and W2.
(§4) The culture medium comprised RPMI 1640 with 25 mM HEPES, sodium bicarbonate and glutamine (GIBCO™ cat. ref.: 52400), supplemented with 10% of pooled human sera AB (Bioreclamation HMSRM-AB)) and HT supplement (0.15 mM hypoxanthine and 24 μM thymidine), (GIBCO™ cat. ref.: 41065). Human sera were decomplemented 30 min. at 56° C., aliquoted and stored frozen at −20° C. until use in this culture medium.
(§5) This culture medium (“complete medium”) was usually prepared fresh just before use and pre-warmed to 37° C.
(§6) Red blood cells AB− stock suspensions were prepared from whole blood bags coming from incomplete blood donation, provided by the Spanish Red Cross (<25 days after sampling). This “whole blood” was aliquoted and stored at 4° C.
(§7) To prepare red blood cells for the assay, the whole blood was centrifuged and washed 3 times with RPMI without serum. The upper phase, containing white blood cells was removed. The washed red blood cells were kept as a 50% suspension in complete medium. The prepared cells were stored at 4° C. and were employed in the assay at any time up to 4 days after preparation.
(§8) Test compounds were dissolved at 2 mg/ml in 100% DMSO on the day of the assay. If necessary, complete dissolution was achieved by gentle heating (the mixture was heated at a temperature <37° C.) and sonication (sonication bath).
(§9) For IC50 determinations, 10 serial 2-fold dilutions were prepared in complete medium in the presence of a constant amount of DMSO. Any obvious signs of insolubility of the stock solutions in 100% DMSO or precipitation when these solutions were diluted in assay media, were recorded.
(§10) Plasmodium falciparum strains were maintained in complete medium at 5% of hematocrit in continuous culture using a method adapted from Trager W. and Jensen J. B. (Human malaria parasites in continuous culture Science 193 (4254) (1976) 673-675) and Trager W. (Cultivation of malaria parasites Methods Cell Biol. 45 (1994) 7-26).
(§11) The parasitemia was calculated by counting the percentage of parasitized erythrocytes by optical microscopy. Thin films of blood were made every day from each culture flask, fixed with methanol and stained for 10 min. in Giemsa (Merck, cat ref.: 1.09204) at 10% in buffered water pH 7.2. The glass slides were observed and counted with an optical microscope (Nikon, Eclipse E200) equipped with a 100× immersion oil objective.
(§12) The culture was maintained at 5% of hematocrit, with a daily change of medium and was diluted when parasitemia had reached about 5%.
(§13) [^3H] Hypoxanthine incorporation assay was conducted using a method adapted from Desjardins R. E. et al. (Quantitative assessment of antimalarial activity in vitro by a semiautomated microdilution technique. Antimicrob. Agents Chemother., 16 (6) (1979) 710-718). The assays were performed in 96 wells flat bottom microplates.
(§14) 1. Serial dilutions of each test compound (25 μl of a 5× solution/well) were deposited in one row of assay microtiter plate. Compounds of this invention were tested in this assay. Chloroquine and Azithromycin were used as control compounds for each assay.
(§15) 2. […] 100 μl of the resulting suspension was distributed into each well of columns 1-11 of assay microtiter plate leading to a final volume of 125 μl per well, at 1.2% of hematocrit and 0.4% of parasitemia/well.
(§16) 3. In each plate, 2 columns were reserved for control wells: • Column 11 (comprising wells A11-H11): Positive control wells: Untreated PRBCs to compare with cultures treated with test compounds. • Column 12 (comprising wells A12-H12): • Background value wells: Uninfected RBCs—blank control to obtain the background reading from RBCs without parasites (at 1.2% of hematocrite value).
(§17) 4. The plates were incubated at 37° C. under low oxygen atmosphere. […]

Experiment [3] has as its system P. falciparum W2 (CDC/Indochina III, W-2). The experiment can be described thus: In vitro screening protocol I, [3H]-hypoxanthine incorporation, W2. Type of experiment: cell-based, Plasmodium falciparum. Conditions: In vitro screening protocol I, P. falciparum W2; for IC50: Plasmodium falciparum, read-out: IC50 W2. Put shortly:
as §1

The test system of experiment [4] is P. falciparum TM91C235. The experiment can be described thus: In vitro screening protocol I, [3H]-hypoxanthine incorporation, TM91C235. Conditions: In vitro screening protocol I, P. falciparum TM91C235; for IC50: Plasmodium falciparum, read-out: IC50 TM91C235. Type of experiment: cell-based, Plasmodium falciparum.
Experiment [5] has as its system Plasmodium falciparum strain W2. The experiment can be described thus: In vitro screening protocol II, [3H] hypoxanthine incorporation IC50 assay, W2. Conditions: P. falciparum W2; for IC50: Plasmodium falciparum. Format: cell-based. As to the method: as §2, §3, §4, §5, §6, §7, §8, §9, §10, §11, §12, §13, §14, §15, §16, §17
Experiment [6] deals with Plasmodium cynomolgi. Conditions: rhesus monkey; cited from earlier work.
Experiment [7] relates to Plasmodium vivax. The following applies: non-immune patients, as compared to controls; cited from earlier work.
In experiment [8] the test system is Plasmodium falciparum. Conditions: non-immune patients, as compared to controls; cited from earlier work.
Experiment [9] relates to Plasmodium yoelii nigeriensis. The following applies: cited from earlier work.
In experiment [10] the test system is Plasmodium berghei. The following applies: cited from earlier work.

In brackets after ≈: the same amount, converted by molar mass.

Usually IC50 stands for the concentration at which inhibition is half-maximal. In the case of `CC[C@H]1OC(=O)[C@H](C)[C@@H](O[C@H]2C[C@@](C)(OC)[C@@H](O)[C@H](C)O2)[C@H](C)[C@@H](O[C@@H]2O[C@H](C)C[C@H](N(C)C)[C@H]2O)[C@](C)(O)C[C@@H](C)CN(CCCNCc2cccc3ccccc23)[C@H](C)[C@@H](O)[C@]1(C)O` [Example 8, 9a-{3-[(Naphtalen-1-yl-methyl)amino]propyl}-9-deoxo-9-dihydro-9a-aza-9a-homoerythromycin A], the IC50 in experiment [1] was less than 0.1 µg/mL; in [2], 0.1 to 0.2 µg/mL (≈ 0.107 to 0.215 µM); in experiment [3], less than 0.1 µg/mL; in experiment [4], less than 0.1 µg/mL; in experiment [5], less than 0.1 µg/mL.
For `CC[C@H]1OC(=O)[C@H](C)[C@@H](O[C@H]2C[C@@](C)(OC)[C@@H](O)[C@H](C)O2)[C@H](C)[C@@H](O[C@@H]2O[C@H](C)C[C@H](N(C)C)[C@H]2O)[C@](C)(O)C[C@@H](C)CN(C)[C@H](C)[C@@H](O)[C@]1(C)O` [azithromycin, reference compound], the IC50 in [1] was in the range of 1 to 2.5 µg/mL (≈ 1.34 to 3.34 µM); in experiment [3], 2.8 to 3.5 µg/mL (≈ 3.74 to 4.67 µM); in experiment [4], 3.5 to 5 µg/mL (≈ 4.67 to 6.68 µM); in experiment [5], 2.5 to 2.8 µg/mL (≈ 3.34 to 3.74 µM). For the same compound, the “efficacy in monkey model” value in [6] is recorded as “active”. The prophylactic efficacy in experiment [7] was 98.9%; in experiment [8], 71.6%.
For `CCC1OC(=O)C(C)C(OC2CC(C)(OC)C(O)C(C)O2)C(C)C(OC2OC(C)CC(N(C)C)C2O)C(C)(O)CC(C)CN(CCCNC(=O)Cc2ccccc2F)C(C)C(O)C1(C)O.O=CO` (centres unmarked) [Example 69, 9a-(3-{[(2-Fluorophenyl)acetyl]amino}propyl)-9-deoxo-9-dihydro-9a-aza-9a-homoerythromycin A Formiate Salt], the “IC50 3D7A” value in experiment [2] is “G (3500 < X ≦ 5000)”. The “IC50 W2” value in [5] is on record as “C (200 < X ≦ 1000)”.
In the case of midecamycinin, the “activity in mouse model” value in experiment [9] and in [10] was “active” each time. Also, the “efficacy in monkey model” value in experiment [6] is on record as “no efficacy”.
For `CC(=O)O.CC(=O)O.CC[C@H]1OC(=O)[C@H](C)[C@@H](O[C@H]2C[C@@](C)(OC)[C@@H](O)[C@H](C)O2)[C@H](C)[C@@H](O[C@@H]2O[C@H](C)C[C@H](N(C)C)[C@H]2O)[C@](C)(O)C[C@@H](C)CN(CCCNC(=O)CCc2ccccc2)[C@H](C)[C@@H](O)[C@]1(C)O` [Example 47, 9a-{3-[(3-Phenylpropanoyl)amino]propyl}-9a-aza-9-deoxo-9-dihydro-9a-homoerythromycin A Diacetate Salt], the “IC50 3D7A” value in experiment [2] was “D (1000 < X ≦ 2500)”. Further, the “IC50 W2” value in experiment [5] was “D (1000 < X ≦ 2500)”.
For the compound `CCC1OC(=O)C(C)C(OC2CC(C)(OC)C(O)C(C)O2)C(C)C(OC2OC(C)CC(N(C)C)C2O)C(C)(O)CC(C)CN(CCCNC(=O)Cc2ccc(Cl)cc2)C(C)C(O)C1(C)O.O=CO` (centres unmarked) [Example 63, 9a-(3-{[(4-Chlorophenyl)acetyl]amino}propyl)-9-deoxo-9-dihydro-9a-aza-9a-homoerythromycin A Formiate Salt], the “IC50 3D7A” value in experiment [2] is “C (200 < X ≦ 1000)”. The “IC50 W2” value in [5] is given as “C (200 < X ≦ 1000)”.
As to `CC[C@H]1OC(=O)[C@H](C)[C@@H](O)[C@H](C)[C@@H](O[C@@H]2O[C@H](C)C[C@H](N(C)C)[C@H]2O)[C@](C)(O)C[C@@H](C)CN(CCCNCc2ccnc3ccccc23)[C@H](C)[C@@H](O)[C@]1(C)O` [Example 15, 9a-{3-[(Quinolin-4-yl-methyl)amino]propyl}-3-O-decladinosyl-9-deoxo-9-dihydro-9a-aza-9a-homoerythromycin A], the “IC50 D6” value in experiment [1] is recorded as “B (100 < X ≦ 200)”. For the same compound, the “IC50 3D7A” value in [2] is “C (200 < X ≦ 1000)”. In addition, the entries for the “IC50 W2” value in [3] and in [5] were “B (100 < X ≦ 200)” and “C (200 < X ≦ 1000)”, respectively. The “IC50 TM91C235” value in [4] is “C (200 < X ≦ 1000)”.
Consider `CC[C@H]1OC(=O)[C@H](C)[C@@H](O)[C@H](C)[C@@H](O)[C@](C)(O)C[C@@H](C)CN(CCCNc2ccnc3cc(Cl)ccc23)[C@H](C)[C@@H](O)[C@]1(C)O` [Example 56], for which the half-maximal inhibitory concentration (IC50) in experiment [2] is less than 0.1 µg/mL; in experiment [5] it was 0.1 to 0.2 µg/mL (≈ 0.157 to 0.313 µM).
With `CCC1OC(=O)C(C)C(OC2CC(C)(OC)C(O)C(C)O2)C(C)C(OC2OC(C)CC(N(C)C)C2O)C(C)(O)CC(C)CN(CCCNC(=O)CCC(=O)c2ccccc2)C(C)C(O)C1(C)O.O=CO` (centres unmarked) [Example 65, 9a-{3-[(4-Oxo-4-phenylbutanoyl)amino]propyl}-9-deoxo-9-dihydro-9a-aza-9a-homoerythromycin A Formiate Salt], the “IC50 3D7A” value in experiment [2] is on record as “G (3500 < X ≦ 5000)”. In addition, in experiment [5], the “IC50 W2” value is reported as “D (1000 < X ≦ 2500)”.
For `CC(=O)O.CC(=O)O.CC(=O)O.CCC1OC(=O)C(C)C(O)C(C)C(OC2OC(C)CC(N(C)C)C2O)C(C)(O)CC(C)CN(CCCNc2ccnc3cc(Cl)ccc23)C(C)C(O)C1(C)O` (centres unmarked) [Example 79] the same measures were “A (X ≦ 100)” and “A (X ≦ 100)”.
Regarding `CC[C@H]1OC(=O)[C@H](C)[C@@H](O[C@H]2C[C@@](C)(OC)[C@@H](O)[C@H](C)O2)[C@H](C)[C@@H](O[C@@H]2O[C@H](C)C[C@H](N(C)C)[C@H]2O)[C@](C)(O)C[C@@H](C)CN(CCCNC(=O)C(Cc2ccc(F)cc2)NC(C)=O)[C@H](C)[C@@H](O)[C@]1(C)O.O=CO` (some centres unmarked) [Example 60, 9a-{3-[(N-Acetyl-4-fluorophenylalanyl)amino]propyl}-9-deoxo-9-dihydro-9a-aza-9a-homoerythromycin A Formiate Salt], the “IC50 3D7A” value in experiment [2] is on record as “H (5000 < X ≦ 10000)”. The “IC50 W2” value in [5] was “D (1000 < X ≦ 2500)”.
Take `CC(=O)O.CC(=O)O.CCC1OC(=O)C(C)C(OC2CC(C)(OC)C(O)C(C)O2)C(C)C(OC2OC(C)CC(N(C)C)C2O)C(C)(O)CC(C)CN(CCCNCc2ccnc3ccccc23)C(C)C(O)C1(C)O` (centres unmarked) [Example 78, 9a-{3-[(Quinolin-4-yl-methyl)amino]propyl}-9-deoxo-9-dihydro-9a-aza-9a-homoerythromycin A Diacetate Salt]: in [2], the “IC50 3D7A” value is reported as “C (200 < X ≦ 1000)”. In experiment [5], the “IC50 W2” value was “A (X ≦ 100)”.
Take `CCC1OC(=O)C(C)C(OC2CC(C)(OC)C(O)C(C)O2)C(C)C(OC2OC(C)CC(N(C)C)C2O)C(C)(O)CC(C)CN(CCCNC(=O)Cc2ccc(OC)cc2)C(C)C(O)C1(C)O.O=CO` (centres unmarked) [Example 58, 9a-[3-({[4-(Methyloxy)phenyl]acetyl}amino)propyl]-9-deoxo-9-dihydro-9a-aza-9a-homoerythromycin A Formiate Salt]: in experiment [2], the “IC50 3D7A” value was “G (3500 < X ≦ 5000)”. Also, in [5], the “IC50 W2” value is “C (200 < X ≦ 1000)”.
